The test system of the experiment is MV-4-11 cells. As to the kind of experiment: Gene expression microarray analysis (Affymetrix PrimeView) and GSEA. It counts as cell-based, human. On the set-up: RFU PODN (11730768_x_at) / Fold change /veh PODN (11730768_x_at) / RFU LINC00158 (11744669_a_at) / Fold change /veh LINC00158 (11744669_a_at) / RFU DUSP10 (11751237_a_at) / Fold change /veh DUSP10 (11751237_a_at) / RFU ID3 (11757404_x_at) / Fold change /veh ID3 (11757404_x_at) / RFU PLEKHG5 (11737974_s_at) / Fold change /veh PLEKHG5 (11737974_s_at) / RFU LRRC4B (11730491_at) / Fold change /veh LRRC4B (11730491_at) / RFU GIMAP4 (11747438_a_at) / Fold change /veh GIMAP4 (11747438_a_at) / RFU KRT8 (11758183_x_at) / Fold change /veh KRT8 (11758183_x_at) / RFU CNN1 (11734310_a_at) / Fold change /veh CNN1 (11734310_a_at) / RFU VPS37D (11726825_at) / Fold change /veh VPS37D (11726825_at) / RFU C10orf10 (11716522_x_at) / Fold change /veh C10orf10 (11716522_x_at) / RFU KIR2DL2 /// KIR2DL4 /// KIR2DL5A /// KIR2DL5B /// KIR2DS1 /// KIR2DS2 /// KIR2DS3 /// KIR2DS4 /// KIR3DL3 /// KIR3DL3 /// KIR3DS1 (11738374_at) / Fold change /veh KIR2DL2 /// KIR2DL4 /// KIR2DL5A /// KIR2DL5B /// KIR2DS1 /// KIR2DS2 /// KIR2DS3 /// KIR2DS4 /// KIR3DL3 /// KIR3DL3 /// KIR3DS1 (11738374_at) / RFU C1QL1 (11718748_at) / Fold change /veh C1QL1 (11718748_at) / RFU TMPRSS4 (11747572_a_at) / Fold change /veh TMPRSS4 (11747572_a_at) / RFU HAMP (11756126_x_at) / Fold change /veh HAMP (11756126_x_at) / RFU RNFT2 (11725882_a_at) / Fold change /veh RNFT2 (11725882_a_at) / RFU NR4A2 (11747474_a_at) / Fold change /veh NR4A2 (11747474_a_at) / RFU ABCC12 (11746883_a_at) / Fold change /veh ABCC12 (11746883_a_at) / RFU TMEM136 (11760407_x_at) / Fold change /veh TMEM136 (11760407_x_at) / RFU CLDN22 /// WWC2 (11732394_at) / Fold change /veh CLDN22 /// WWC2 (11732394_at) / RFU HLA-DPB1 (11760878_x_at) / Fold change /veh HLA-DPB1 (11760878_x_at) / RFU SPINT1 (11716480_a_at) / Fold change /veh SPINT1 (11716480_a_at) / RFU GAP43 (11754022_s_at) / Fold change /veh GAP43 (11754022_s_at) / RFU A4GNT (11735810_at) / Fold change /veh A4GNT (11735810_at) / RFU PRB3 (11715151_x_at) / Fold change /veh PRB3 (11715151_x_at) / RFU TUBB4B (11761932_at) / Fold change /veh TUBB4B (11761932_at) / RFU CAPN14 (11732068_a_at) / Fold change /veh CAPN14 (11732068_a_at) / RFU TMCC2 (11721928_a_at) / Fold change /veh TMCC2 (11721928_a_at) / RFU IRGQ (11745062_a_at) / Fold change /veh IRGQ (11745062_a_at) / RFU FAM174B (11720279_a_at) / Fold change /veh FAM174B (11720279_a_at) / RFU TMPRSS4 (11748680_a_at) / Fold change /veh TMPRSS4 (11748680_a_at) / RFU FAM212B (11763350_a_at) / Fold change /veh FAM212B (11763350_a_at) / RFU PLEKHG5 (11743358_a_at) / Fold change /veh PLEKHG5 (11743358_a_at) / RFU ZSCAN30 (11745921_a_at) / Fold change /veh ZSCAN30 (11745921_a_at) / RFU CMKLR1 (11741424_a_at) / Fold change /veh CMKLR1 (11741424_a_at) / RFU LOC101060620 /// MAPK8IP1 (11723275_at) / Fold change /veh LOC101060620 /// MAPK8IP1 (11723275_at) / RFU SPTSSB (11747773_x_at) / Fold change /veh SPTSSB (11747773_x_at) / RFU PRSS12 (11739890_at) / Fold change /veh PRSS12 (11739890_at) / RFU BIN1 (11741810_x_at) / Fold change /veh BIN1 (11741810_x_at) / RFU WNT11 (11732464_a_at) / Fold change /veh WNT11 (11732464_a_at) / RFU C10orf10 (11716521_a_at) / Fold change /veh C10orf10 (11716521_a_at) / RFU C5orf56 (11738089_at) / Fold change /veh C5orf56 (11738089_at) / RFU CYB561 (11721691_x_at) / Fold change /veh CYB561 (11721691_x_at) / RFU ANKRD19P (11752326_a_at) / Fold change /veh ANKRD19P (11752326_a_at) / RFU OR2T12 /// OR2T33 /// OR2T8 (11738714_s_at) / Fold change /veh OR2T12 /// OR2T33 /// OR2T8 (11738714_s_at) / RFU VCAN (11748164_a_at) / Fold change /veh VCAN (11748164_a_at) / RFU JSRP1 (11732532_at) / Fold change /veh JSRP1 (11732532_at) / RFU KRTAP10-11 (11738290_x_at) / Fold change /veh KRTAP10-11 (11738290_x_at) / RFU MYO3A (11730013_a_at) / Fold change /veh MYO3A (11730013_a_at) / RFU EBF3 (11725865_a_at) / Fold change /veh EBF3 (11725865_a_at) / RFU CAMK2N1 (11719241_x_at) / Fold change /veh CAMK2N1 (11719241_x_at) / RFU C5orf56 (11738088_a_at) / Fold change /veh C5orf56 (11738088_a_at) / RFU OLFML3 (11715873_a_at) / Fold change /veh OLFML3 (11715873_a_at) / RFU LOC100653217 /// NTM (11731650_a_at) / Fold change /veh LOC100653217 /// NTM (11731650_a_at) / RFU MAPK11 (11762145_a_at) / Fold change /veh MAPK11 (11762145_a_at) / RFU FIZ1 (11724087_x_at) / Fold change /veh FIZ1 (11724087_x_at) / RFU OASL (11726364_x_at) / Fold change /veh OASL (11726364_x_at) / RFU SOX15 (11748057_x_at) / Fold change /veh SOX15 (11748057_x_at) / RFU CD79A (11719716_a_at) / Fold change /veh CD79A (11719716_a_at) / RFU HIST1H1D (11736915_at) / Fold change /veh HIST1H1D (11736915_at) / RFU CASKIN2 (11723855_a_at) / Fold change /veh CASKIN2 (11723855_a_at) / RFU LOC730098 (11760151_x_at) / Fold change /veh LOC730098 (11760151_x_at) / RFU OR4N2 (11742367_at) / Fold change /veh OR4N2 (11742367_at) / RFU PRRT2 (11749266_a_at) / Fold change /veh PRRT2 (11749266_a_at) / RFU SNX32 (11753110_a_at) / Fold change /veh SNX32 (11753110_a_at) / RFU CDHR5 (11726645_a_at) / Fold change /veh CDHR5 (11726645_a_at) / RFU RCAN1 (11760418_a_at) / Fold change /veh RCAN1 (11760418_a_at) / RFU FAM167A (11723789_a_at) / Fold change /veh FAM167A (11723789_a_at) / RFU FAM26E (11764081_at) / Fold change /veh FAM26E (11764081_at) / RFU ISYNA1 (11749810_s_at) / Fold change /veh ISYNA1 (11749810_s_at) / RFU ACY1 (11761880_at) / Fold change /veh ACY1 (11761880_at) / RFU 11764098_at / Fold change /veh 11764098_at / RFU SAMD14 (11745864_x_at) / Fold change /veh SAMD14 (11745864_x_at) / RFU NPB (11741838_a_at) / Fold change /veh NPB (11741838_a_at) / RFU TMPRSS6 (11731388_a_at) / Fold change /veh TMPRSS6 (11731388_a_at) / RFU KRTAP10-2 (11738614_at) / Fold change /veh KRTAP10-2 (11738614_at) / RFU ARHGAP8 /// PRR5-ARHGAP8 (11727945_x_at) / Fold change /veh ARHGAP8 /// PRR5-ARHGAP8 (11727945_x_at) / RFU KRTAP5-7 /// NADSYN1 (11734609_at) / Fold change /veh KRTAP5-7 /// NADSYN1 (11734609_at) / RFU RASL12 (11751679_a_at) / Fold change /veh RASL12 (11751679_a_at) / RFU CDKN2B (11736163_a_at) / Fold change /veh CDKN2B (11736163_a_at) / RFU PRF1 (11729649_at) / Fold change /veh PRF1 (11729649_at) / RFU, ZNF638 /// ZNF638-IT1 / Fold change vs veh, ZNF638 /// ZNF638-IT1 / RFU, PANK3 / Fold change vs veh, PANK3 / RFU, SH3YL1 / Fold change vs veh, SH3YL1 / RFU, ZEB2 / Fold change vs veh, ZEB2 / RFU, NRIP1 / Fold change vs veh, NRIP1 / RFU, PTTG1IP / Fold change vs veh, PTTG1IP / RFU, CAPN2 / Fold change vs veh, CAPN2 / RFU, MED14 / Fold change vs veh, MED14 / RFU, SNORA58 / Fold change vs veh, SNORA58 / RFU, C1orf63 / Fold change vs veh, C1orf63 / RFU, LRRFIP1 / Fold change vs veh, LRRFIP1 / RFU, NDUFAF7 / Fold change vs veh, NDUFAF7 / RFU, SLC12A2 / Fold change vs veh, SLC12A2 / RFU, IBTK / Fold change vs veh, IBTK / RFU, ESF1 / Fold change vs veh, ESF1 / Fold change vs veh, TMEM50B / RFU, TAOK1 / Fold change vs veh, TAOK1 / RFU, ACBD3 / Fold change vs veh, ACBD3 / RFU, TMA16 / Fold change vs veh, TMA16 / RFU, RWDD3 / Fold change vs veh, RWDD3 / RFU, BCAT1 / Fold change vs veh, BCAT1 / RFU, EDEM3 / Fold change vs veh, EDEM3 / RFU, TMEM33 / Fold change vs veh, TMEM33 / RFU, WDR75 / Fold change vs veh, WDR75 / RFU, AHCTF1 / Fold change vs veh, AHCTF1 / RFU, TFRC / Fold change vs veh, TFRC / RFU, ZDHHC17 / Fold change vs veh, ZDHHC17 / RFU, NOM1 / Fold change vs veh, NOM1 / RFU, ARL8B / Fold change vs veh, ARL8B / RFU, ZBTB11 / Fold change vs veh, ZBTB11 / RFU, TAMM41 / Fold change vs veh, TAMM41 / RFU, KIAA1704 /// LOC100996395 / Fold change vs veh, KIAA1704 /// LOC100996395 / RFU, ING1 / Fold change vs veh, ING1 / RFU, TRMT61B / Fold change vs veh, TRMT61B / RFU, FUBP3 / Fold change vs veh, FUBP3 / RFU, TP53 / Fold change vs veh, TP53 / RFU, TNKS2 / Fold change vs veh, TNKS2 / RFU, ZFP14 / Fold change vs veh, ZFP14 / RFU, ACTR2 / Fold change vs veh, ACTR2 / RFU, PPP3R1 / Fold change vs veh, PPP3R1 / RFU, PIK3R1 / Fold change vs veh, PIK3R1 / RFU, HNRNPA1 / Fold change vs veh, HNRNPA1 / RFU, RNF170 / Fold change vs veh, RNF170 / RFU, ZNF28 / Fold change vs veh, ZNF28 / RFU, RNGTT / Fold change vs veh, RNGTT / RFU, OGT / Fold change vs veh, OGT / RFU, BRD1 / Fold change vs veh, BRD1 / RFU, MARS / Fold change vs veh, MARS / RFU, ZNF655 / Fold change vs veh, ZNF655 / RFU, FAHD1 / Fold change vs veh, FAHD1 / RFU, BDP1 / Fold change vs veh, BDP1 / RFU, LRRCC1 / Fold change vs veh, LRRCC1 / RFU, ARID1A / Fold change vs veh, ARID1A / RFU, ZNF146 / Fold change vs veh, ZNF146 / RFU, ZNF330 / Fold change vs veh, ZNF330 / RFU, GPN3 / Fold change vs veh, GPN3 / RFU, C9orf123 / Fold change vs veh, C9orf123 / RFU, N4BP2L2 / Fold change vs veh, N4BP2L2 / RFU, ARFIP1 / Fold change vs veh, ARFIP1 / RFU, FAM179B / Fold change vs veh, FAM179B / RFU, BCL10 / Fold change vs veh, BCL10 / RFU, UHRF1BP1L / Fold change vs veh, UHRF1BP1L / RFU, BET1 / Fold change vs veh, BET1 / RFU, CNOT2 / Fold change vs veh, CNOT2 / RFU, ZNF268 / Fold change vs veh, ZNF268 / Fold change vs veh, ZNF507 / RFU, DGCR2 / Fold change vs veh, DGCR2 / RFU, WDSUB1 / Fold change vs veh, WDSUB1 / Fold change vs veh, HSP90B1 /// MIR3652 / RFU, ADSS / Fold change vs veh, ADSS / RFU, GK / Fold change vs veh, GK / RFU, ZNF148 / Fold change vs veh, ZNF148 / RFU, TAF9 / Fold change vs veh, TAF9 / RFU, SLC1A5 / Fold change vs veh, SLC1A5 / RFU, SLMO2 / Fold change vs veh, SLMO2 / RFU, ABCC4 / Fold change vs veh, ABCC4 / RFU, LOC101060439 /// RAP1B / Fold change vs veh, LOC101060439 /// RAP1B / RFU, RFX7 / Fold change vs veh, RFX7 / RFU, GTPBP10 / Fold change vs veh, GTPBP10 / RFU, CNEP1R1 / Fold change vs veh, CNEP1R1 / RFU, BIVM-ERCC5 /// ERCC5 / Fold change vs veh, BIVM-ERCC5 /// ERCC5 / RFU, ILF3 / Fold change vs veh, ILF3 / RFU 11762660_at / Fold change /veh 11762660_at / RFU VCAN (11757783_s_at) / Fold change /veh VCAN (11757783_s_at) / RFU DDX43 (11728927_at) / Fold change /veh DDX43 (11728927_at) / RFU KRT8 (11758188_x_at) / Fold change /veh KRT8 (11758188_x_at) / RFU NKD1 (11759106_at) / Fold change /veh NKD1 (11759106_at) / RFU SRD5A1 (11742802_a_at) / Fold change /veh SRD5A1 (11742802_a_at) / RFU TPSAB1 /// TPSB2 (11721975_s_at) / Fold change /veh TPSAB1 /// TPSB2 (11721975_s_at) / RFU GSTM3 (11746129_a_at) / Fold change /veh GSTM3 (11746129_a_at) / RFU IL23R (11737362_x_at) / Fold change /veh IL23R (11737362_x_at) / RFU TMEM51 (11727254_a_at) / Fold change /veh TMEM51 (11727254_a_at) / RFU PIWIL2 (11732686_x_at) / Fold change /veh PIWIL2 (11732686_x_at) / RFU ORM1 (11744905_x_at) / Fold change /veh ORM1 (11744905_x_at) / RFU CCDC152 (11743942_at) / Fold change /veh CCDC152 (11743942_at) / RFU ECM1 (11717891_a_at) / Fold change /veh ECM1 (11717891_a_at) / RFU IL23R (11748794_a_at) / Fold change /veh IL23R (11748794_a_at) / RFU TNFAIP8L3 (11732012_x_at) / Fold change /veh TNFAIP8L3 (11732012_x_at) / RFU MBOAT4 (11741988_at) / Fold change /veh MBOAT4 (11741988_at) / RFU 11764193_at / Fold change /veh 11764193_at / RFU TMEM53 (11763286_at) / Fold change /veh TMEM53 (11763286_at) / RFU MAGEB2 (11727129_at) / Fold change /veh MAGEB2 (11727129_at) / RFU TMEM200A (11744735_a_at) / Fold change /veh TMEM200A (11744735_a_at) / RFU CCDC152 (11751479_a_at) / Fold change /veh CCDC152 (11751479_a_at) / RFU FAM211A (11726209_a_at) / Fold change /veh FAM211A (11726209_a_at) / RFU RGS16 (11746705_a_at) / Fold change /veh RGS16 (11746705_a_at) / RFU VCAN (11755009_s_at) / Fold change /veh VCAN (11755009_s_at) / RFU RHOB (11743442_s_at) / Fold change /veh RHOB (11743442_s_at) / RFU RGS16 (11720943_a_at) / Fold change /veh RGS16 (11720943_a_at) / RFU RGS16 (11720944_at) / Fold change /veh RGS16 (11720944_at) / RFU, VPS4B / Fold change vs veh, VPS4B / RFU, CREB1 / Fold change vs veh, CREB1 / RFU, DNAJC13 / Fold change vs veh, DNAJC13 / RFU, GNAQ / Fold change vs veh, GNAQ / RFU, CDK5R1 / Fold change vs veh, CDK5R1 / RFU, ZRANB3 / Fold change vs veh, ZRANB3 / RFU, CUL4A / Fold change vs veh, CUL4A / RFU, CCNY / Fold change vs veh, CCNY / RFU, UFL1 / Fold change vs veh, UFL1 / RFU, COG3 / Fold change vs veh, COG3 / RFU, DIAPH2 / Fold change vs veh, DIAPH2 / RFU, SKA2 / Fold change vs veh, SKA2 / RFU, AFF3 / Fold change vs veh, AFF3 / RFU, LMF1 / Fold change vs veh, LMF1 / RFU, IPO11 / Fold change vs veh, IPO11 / RFU, DFFB / Fold change vs veh, DFFB / RFU, FOXP1 / Fold change vs veh, FOXP1 / RFU, CARD8 / Fold change vs veh, CARD8 / RFU, STRN3 / Fold change vs veh, STRN3 / RFU, ADK / Fold change vs veh, ADK / RFU, RASSF2 / Fold change vs veh, RASSF2 / RFU, WIPF1 / Fold change vs veh, WIPF1 / RFU, LARP1B / Fold change vs veh, LARP1B / RFU, RASA1 / Fold change vs veh, RASA1 / RFU, RB1 / Fold change vs veh, RB1 / RFU, PPFIA1 / Fold change vs veh, PPFIA1 / RFU, MAT2A / Fold change vs veh, MAT2A / RFU, CCT5 / Fold change vs veh, CCT5 / RFU, WDR92 / Fold change vs veh, WDR92 / RFU, CUX1 / Fold change vs veh, CUX1 / RFU, TTC7A / Fold change vs veh, TTC7A / RFU, TMEM135 / Fold change vs veh, TMEM135 / RFU, DEPTOR / Fold change vs veh, DEPTOR / RFU, CPM / Fold change vs veh, CPM / RFU, DNAJB6 / Fold change vs veh, DNAJB6 / RFU, CACNA2D3 / Fold change vs veh, CACNA2D3 / RFU, DTX4 / Fold change vs veh, DTX4 / RFU, TFCP2 / Fold change vs veh, TFCP2 / RFU, GMCL1 /// GMCL1P1 / Fold change vs veh, GMCL1 /// GMCL1P1 / RFU, AEBP2 / Fold change vs veh, AEBP2 / RFU, SNHG1 /// SNORD22 /// SNORD25 /// SNORD26 /// SNORD27 /// SNORD28 /// SNORD29 /// SNORD31 / Fold change vs veh, SNHG1 /// SNORD22 /// SNORD25 /// SNORD26 /// SNORD27 /// SNORD28 /// SNORD29 /// SNORD31 / Fold change (Aza/veh), C12orf56 (ProbeSet 11735607_a_at) / Fold change (ACY-1035/veh), C12orf56 (ProbeSet 11735607_a_at) / Fold change (Aza/veh), FGFR1OP (ProbeSet 11751329_s_at) / Fold change (ACY-1035/veh), FGFR1OP (ProbeSet 11751329_s_at) / Fold change (Aza/veh), VPS36 (ProbeSet 11739960_a_at) / Fold change (ACY-1035/veh), VPS36 (ProbeSet 11739960_a_at) / RFU SYPL1 (11715823_x_at) / Fold change /veh SYPL1 (11715823_x_at) / RFU IGFBP7 (11715501_s_at) / Fold change /veh IGFBP7 (11715501_s_at) / RFU REEP3 (11722064_at) / Fold change /veh REEP3 (11722064_at) / RFU IGLL1 (11728026_x_at) / Fold change /veh IGLL1 (11728026_x_at): dose or concentration left out as unconfirmed. The conditions noted are these: MV-4-11 cells, 48 hours.

With `Nc1ncn([C@@H]2O[C@H](CO)[C@@H](O)[C@H]2O)c(=O)n1` [azacitidine], the “RFU ORM1 (11744905_x_at)” value came to 10.48 RFU.

For the origin of these results see article PMC5218480 (PLoS ONE, 2017).
